Reference: patent US9034859B2, “Sulfated oxysterol and oxysterol sulfation by hydroxysterol sulfotransferase promote lipid homeostasis and liver proliferation” (Virginia Commonwealth University, priority 2011, dated 2015)

Tests used:
LXR signaling pathway = assay: Western blot of LXR and its target genes and PCNA in mouse liver (Example 3); type: in vivo, C57BL/6 mice; conditions: 5 mg/kg i.v.
Method: Cayman Chemical, Ann Arbor, Mich.); […] […] Metabolism. (Accepted)]. […] Cell lysates were prepared from frozen mouse liver tissues. Total proteins, 100 μg, were separated by 10% SDS-PAGE, and transferred to PVDF membrane (Millipore, Eschbom, Germany). […] Louis, Mo.) was used as a loading control. The immunoreactive bands were detected by Fujifilm Medical System (Fujifilm, Stamford, Conn.) and quantified by Advanced Image Data Analyzer (Aida Inc., Straubenhardt, Germany).

[1] = test system: primary rat hepatocytes (PRH); assay: Western blot in primary rat hepatocytes (Example 4); type: cell-based; conditions: Ad-Control-infected group, T0901317 1.5 μM or 25HC 3 μM
Method: PRH were prepared as previously described (24). Briefly, parenchymal cells (3.5×10^6) were inoculated in 60-mm plastic Petri dishes coated with rat tail collagen. The plates contained 3 ml of Williams E culture media supplemented with thyroxine (1 μM), dexamethasone (0.1 μM), and penicillin (100 units/ml). Three hours after plating, culture medium was removed and fresh medium was added. Cells were then infected with Ad-SULT2B1b at a multiplicity (MOI) of 10 plaque forming units/cell (pfu/cell) or 100 nM of siRNA-SULT2B1b (ON-TARGET plus siRNA of rat SULT2B1b, Thermo Scientific Dharmacon, Lafayette, Colo.) as previously described (31). The Ad-Control and siRNA-Control (ON-TARGET plus negative control siRNA) were used as controls, respectively. Twenty four hours after infection, cells were treated with T0901317 (1.5 μM) or 25HC (3 μM) for another 24 hours. The cells were harvested at the timepoints as indicated in the text.
Cell lysates were prepared from frozen mouse liver tissues or PRH, and 50 μg of the total proteins were separated by 10% SDS-PAGE, transferred to polyvinylidene difluoride membrane (Millipore, Eschbom, Germany). Specific protein was probed with specific antibodies against PCNA, human SULT2B1b (Santa Cruz Biotechnology, Santa Cruz, Calif.), LXRα (Abcam, Cambridge, Mass.), ATP-binding cassette transporters 1 (ABCA1) (Abcam, Cambridge, Mass.), and SREBP1 (Santa Cruz Biotechnology, Santa Cruz, Calif.). β-Actin (Sigma-Aldrich, St. Louis, Mo.) was used as a loading control. Western analysis was performed by methods known in the art.

O=S(=O)(c1ccccc1)N(CC(F)(F)F)c1ccc(C(O)(C(F)(F)F)C(F)(F)F)cc1 [T0901317, reference compound]
25HC3S-induced PCNA expression (LXR signaling pathway; day 2): significantly repressed
expressions of LXR target genes ABCA1 and SREBP-1c (LXR signaling pathway; day 2, presence and absence of 25HC3S, vs vehicle): induced
LXR response gene expressions [1]: significantly increased
PCNA expression [1]: decreased
